Experimental data from paper PMC4129439 (eLife, 2014).
Several values for one entry are separate records, joined by “and”; a condition that tells them apart may be missing. Equal values may be shown once. Read-outs that look alike come from different tables or passages of the source.

Experiments:
[1] = molecular target: T1, mouse SAA1 (mSAA1) (Mus musculus, UniProt P05366); assay: Fluorometric retinoid binding assay, mSAA1; details: for binding (in words): tryptophan fluorescence quenching, excitation 296 nm, emission 334 nm
T1 construct: hexa-histidine tag followed by thrombin cleavage site (N, cleaved yes); made in house; host or cells: Escherichia coli BL21-CodonPlus (DE3)-RILP
T1 sequence (P05366 20-122): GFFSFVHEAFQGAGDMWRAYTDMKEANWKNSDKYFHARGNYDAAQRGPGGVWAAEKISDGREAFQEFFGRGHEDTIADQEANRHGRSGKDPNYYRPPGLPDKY
Method: (§1) Retinoic acid lacks intrinsic fluorescence but can quench inherent protein fluorescence due to energy transfer from tryptophan residues ([Cogan et al., 1976]). We therefore measured retinoic acid binding using a modified fluorescence assay that monitored quenching of protein fluorescence (Figure 2C).
(§2) Steady state fluorescence was measured using a QuantaMaster 40 spectrofluorometer (Photon Technology International, Edison, NJ) and FelixGX software program. […] For retinoic acid and other retinoids, samples were excited at 296 nm and tryptophan quenching was monitored by emission at 334 nm. Experiments on mSAA1 and mSAA3 were done in 25 mM Tris pH 8.0, 100 mM NaCl, and 4 mM decyl maltopyranoside (DM). Experiments with hSAA1, human ApoA1, and human transferrin were conducted in PBS. […] All assays were done using a protein concentration of 0.5 μM.

[2] = molecular target: T2, recombinant human SAA1 (hSAA1) (Homo sapiens, UniProt P0DJI8, D78N/H89R); assay: Fluorometric retinoid binding assay, hSAA1; details: for Kd: PBS, 0.5 μM protein
T2 construct: corresponding to human apo-SAA1α except for the presence of an N-terminal methionine; purchased PeproTech (Rocky Hill, NJ)
T2 sequence (P0DJI8 19-122 D78N/H89R): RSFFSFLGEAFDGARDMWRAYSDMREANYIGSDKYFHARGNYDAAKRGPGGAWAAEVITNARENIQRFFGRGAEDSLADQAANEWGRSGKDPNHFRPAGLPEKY
Method: as §1, §2

[3] = molecular target: T3, mouse SAA3 (mSAA3) (Mus musculus, UniProt P04918); assay: Fluorometric retinoid binding assay, mSAA3
T3 construct: hexa-histidine tag followed by thrombin cleavage site (N, cleaved yes); made in house; host or cells: Escherichia coli BL21-CodonPlus (DE3)-RILP
T3 sequence (P04918 19-122): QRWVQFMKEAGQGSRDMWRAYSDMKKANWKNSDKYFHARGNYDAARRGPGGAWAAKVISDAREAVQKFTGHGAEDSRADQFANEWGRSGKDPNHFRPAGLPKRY
Method: as §1, §2

[4] = molecular target: T4, mSAA3-W71A (Mus musculus, UniProt P04918, W71A); assay: Retinol binding assay, mSAA3-W71A mutant
T4 construct: hexa-histidine tag followed by thrombin cleavage site (N, cleaved yes); made in house; host or cells: Escherichia coli BL21-CodonPlus (DE3)-RILP
T4 sequence (P04918 19-122 W71A): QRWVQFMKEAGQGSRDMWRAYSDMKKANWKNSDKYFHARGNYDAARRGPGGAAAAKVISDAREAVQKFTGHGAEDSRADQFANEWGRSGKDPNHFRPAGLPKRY
Method: The mSAA3-W71A mutant was generated using the QuickChange II site-directed mutagenesis kit (Agilent Technologies, Santa Clara, CA).
as §2

[5] = system: intestinal Saa1 and Saa2 expression; assay: Saa expression in small intestinal explants by Q-PCR; assay type: cell-based, mouse; details: 1 µM retinol in 0.1% DMSO, ileum explants, 6 hr
[6] = system: SAA1 and 2 expression in HepG2 cells; assay: SAA expression in HepG2 cells by Q-PCR; assay type: cell-based, human
Excerpt: (§3) Figure 1. SAA expression requires dietary vitamin A. (A) Mice were maintained on a normal (Vit. A+) diet or a vitamin A-deficient (Vit. A−) diet as in Figure 1—figure supplement 1. N = 3–5 mice per condition. (B) Ileal sections were stained with anti-SAA antibody (‘Materials and methods’) and anti-rabbit IgG-Cy3 (red), and counterstained with DAPI (blue). Scale bar = 50 µm. (C) Q-PCR determination of Saa expression levels in livers of mice on a normal or vitamin A-deficient diet. N = 5 mice/condition. (D) Liver sections were stained with anti-SAA antibody and anti-rabbit IgG-Cy3 (red), and counterstained with DAPI (blue). Scale bars = 50 µm. (E and F) Analysis of SAA expression in HepG2 cells. […] SAA expression was determined by Q-PCR. N = 3 independent experiments. Mean ± SEM is plotted. nd, not detected. *p < 0.05; **p < 0.01; ***p < 0.001. p values were determined by two-tailed Student's t test. DOI: http://dx.doi.org/10.7554/eLife.03206.004 Figure 1—figure supplement 1. […] Saa transcript abundance was determined by Q-PCR. […] Saa transcript abundance was determined by Q-PCR. […] Mean ± SEM is plotted. *p < 0.05, **p < 0.01. p values were determined by the Mann–Whitney test in (A) and two-tailed Student's t test in (B). […]

[7] = molecular target: human retinol binding protein 4 (hRBP4) (Homo sapiens, UniProt P02753); assay: Fluorescence binding assay, hRBP4; details: fluorescence quenching assay as in Figure 2
[8] = system: liver Saa1 and Saa2 expression; assay: In vivo retinoic acid reconstitution, liver Saa expression by Q-PCR; parameters: species or system mouse; details: vitamin A-depleted mice, intraperitoneal, daily for three days
Excerpt: as §3

[9] = system: hSAA1, mSAA1, and mSAA3; assay: Cholesterol competition of retinol binding to SAAs; details: 10 μM cholesterol, saturating retinol, fluorescence quenching at 334 nm
Excerpt: Figure 2. […] Plots are representative of five independent experiments. (C) Retinoic acid lacks intrinsic fluorescence, but can quench intrinsic protein fluorescence due to energy transfer from tryptophan residues ([Cogan et al., 1976]). All-trans-retinoic acid was titrated into mSAA3 and fluorescence quenching was monitored following excitation at 296 nm. The chemical structure of retinoic acid is shown. (D) All-trans-retinoic acid was titrated into hSAA1, mSAA1, mSAA3, hTfr, and ApoA1. Fluorescence emission was monitored at 334 nm with excitation at 296 nm as in (C). Plots are representative of three independent experiments. […] Additional ligand binding measurements are provided in Figure 2—figure supplements 1 and 2. DOI: http://dx.doi.org/10.7554/eLife.03206.007 Figure 2—figure supplement 1. […] DOI: http://dx.doi.org/10.7554/eLife.03206.008 [drawing 3] Figure 2—figure supplement 2. Additional ligand binding studies on human and mouse SAAs. […] Plots are representative of three independent experiments.
Steady state fluorescence was measured using a QuantaMaster 40 spectrofluorometer (Photon Technology International, Edison, NJ) and FelixGX software program. […] For retinoic acid and other retinoids, samples were excited at 296 nm and tryptophan quenching was monitored by emission at 334 nm. […]

[10] = molecular target: the molecule itself; assay: crystal structure; selenomethionyl mSAA3, space group P6(2), two subunits in the asymmetric unit, SAD phasing, 2 Å; 75-80% MPD, 0.1 M sodium acetate pH 4.5, 20°C; quaternary structure by PDBePISA
[11] = tryptophan fluorescence quenching, excitation 296 nm, emission 334 nm
[12] = tryptophan fluorescence quenching, excitation 296 nm, emission 334 nm, 0.5 μM protein

CC1=C(/C=C/C(C)=C/C=C/C(C)=C/C=C/C=C(C)/C=C/C=C(C)/C=C/C2=C(C)CCCC2(C)C)C(C)(C)CCC1 [β-carotene]
binding (in words) [1]: weak binding
Kd [2, 11]: 347 nM and 497 nM
Kd [3, 12]: 159 nM

CCCCCCCCCCCCCCCC(=O)OC/C=C(C)/C=C/C=C(C)/C=C/C1=C(C)CCCC1(C)C [retinyl palmitate]
binding (in words) [1]: bound weakly
binding (in words) [2, 11]: bound weakly
binding (in words) [3, 11]: bound weakly

CC(=O)OC/C=C(C)/C=C/C=C(C)/C=C/C1=C(C)CCCC1(C)C [retinyl acetate]
binding (in words) [1]: weak binding
Kd [2, 11]: 497 nM and 347 nM

CC1=C(/C=C/C(C)=C/C=C/C(C)=C/CO)C(C)(C)CCC1 [retinol]
Kd [4]: 496 ± 127 nM
Kd [1]: 169 nM
Kd ([2]; all-trans-retinol titration, retinol fluorescence, excitation 348 nm, emission 460 nm): 259 nM
expression of intestinal Saa1 and Saa2 [5]: elevated expression
Kd [3]: 145 nM
expression of SAA1 and 2 ([6]; 1 μM retinol in the presence of IL-1β and IL-6, retinoid-free medium): enhanced expression

CC1=C(/C=C/C(C)=C/C=C/C(C)=C/C(=O)O)C(C)(C)CCC1 [retinoic acid]
binding (in words) [1]: weak binding
Kd [7]: 139 ± 40 nM
Kd [2, 11]: 268 nM
Kd [3, 12]: 224 nM
expression of SAA1 and 2 ([6]; 100 nM retinoic acid in the presence of IL-1β and IL-6, retinoid-free medium): enhanced expression
expression of liver Saa1 and Saa2 [8]: elevated expression

CC(C)CCC[C@@H](C)[C@H]1CC[C@H]2[C@@H]3CC=C4C[C@@H](O)CC[C@]4(C)[C@H]3CC[C@]12C [cholesterol]
competitive inhibition of retinol binding [9]: unable to competitively inhibit retinol binding

B1: mouse serum amyloid A3 (mSAA3) (natural protein, UniProt P04918 19-122, looked up)
chain: QRWVQFMKEAGQGSRDMWRAYSDMKKANWKNSDKYFHARGNYDAARRGPGGAWAAKVISDAREAVQKFTGHGAEDSRADQFANEWGRSGKDPNHFRPAGLPKRY
notes: cloned into pET28(a)+ between NdeI and BamHI; monomer is 12.2 kDa; The crystal used for the structure was selenomethionyl-derivatised (grown in defined media with selenomethionine); SEC and cross-linking used the native protein; A few vector residues probably remain at the N-terminus after thrombin cleavage (surmise); also called mouse SAA3; not shown: His6, N-terminal, cleaved
stoichiometry N [10]: 4
